Experimental data: US8871788B2, “Substituted N-alkyl and N-acyl tetrahydro-isoquinoline derivatives, preparation and therapeutic use thereof” (Sanofi, priority 2010, dated 2014)

How the values were obtained:
rhesus H3 = molecular target: T1, rhesus H3 (Macaca mulatta, UniProt Q865E1); test: GTPγS radioligand binding assay, rhesus H3 constitutive functional activity in cell membranes; type: biochemical, rhesus monkey (Macacca Mulatta); details: relative to basal levels
T1 construct: 445 amino acid H3 receptor; expressed in transfected cells; host or cells: Flp-In T-REx 293 Cell Line (Invitrogen), pcDNA5/FRT/TO, induced with tetracycline
Protocol: (§1) Rhesus H3 membranes were prepared from the Flp-In T-REx 293 Cell Line (Invitrogen) stably transfected with pcDNA5/FRT/TO (Invitrogen) containing the rhesus monkey (Macacca Mulatta) 445 amino acid H3 receptor. (Genbank #AY231164). Stably transfected cultures were amplified in tissue culture flasks by standard tissue culture methods and induced to express rhesus H3 by exposure to 500 ng/ml tetracycline (Cellgro) for 24 hours. After induction, cells were dissociated from flasks utilizing Cell Stripper (Cellgro). Cells were centrifuged (1K×g, 5 min) and pellet frozen in an ethanol-dry ice bath to disrupt cell membranes. Frozen cell pellet was re-suspended in 5 mM HEPES (pH 7.4, Invitrogen) at 10 ml/1000 cm2 of harvested cells. The cell suspension was drawn through an 18 gauge needle (2-3×) followed by a 23 gauge needle (2-3×) to further disrupt cell membranes. The cell suspension was centrifuged (40K×g, 30 min). Cell membrane pellet was re-suspended in 5 mM HEPES (pH 7.4, Invitrogen) at a final protein concentration of 10 mg/ml. Rhesus H3 membranes were stored under liquid nitrogen prior to use in [3H]-Methylhistamine and GTPγS radioligand binding assays.

Rat H3 = Rat H3 (Rattus norvegicus, UniProt Q9QYN8); test: Rat H3 radioligand binding (similar procedure); details: rat H3, similar procedure to rhesus binding
Protocol: (§2) Rhesus H3 radioligand binding assay was performed using rhesus H3 receptor membranes (prepared as described above), [3H]-Methylhistamine (Perkin Elmer) and WGA SPA beads (wheat germ agglutinin scintillation proximity assay) beads (Amersham). The assay was performed in 96-well Opti-Plates (Packard). Each reaction contained 50 μl rhesus H3 membranes (20-30 μg total protein), 50 μl WGA SPA beads (0.1 μg) and 50 μl of 83Ci/mmol [^3H]-Methylhistamine (final concentration 2 nM) and 50 μl of tested compound. The compounds of this invention and/or vehicle were diluted with binding buffer from 10 mM DMSO stocks. Assay plates were sealed with TopSeal (Perkin Elmer) and mixed on shaker (25° C., 1 hour). Assay plates were read on TopCount scintillation counter (Packard). Results were analyzed by Hill transformation and Ki values were determined by Cheng-Prusoff equation. Similar procedure was employed to determine the binding data for rat.

[1] = molecular target: T2, rhesus (Macacca Mulatta) H3 receptor (Macaca mulatta, UniProt Q865E1); test: Rhesus H3 [3H]-Methylhistamine radioligand binding assay (SPA); set-up: species or system rhesus monkey (Macacca Mulatta); details: [3H]-Methylhistamine 2 nM, rhesus H3 membranes, Cheng-Prusoff
T2 construct: 445 amino acid H3 receptor; expressed in transfected cells; host or cells: Flp-In T-REx 293 Cell Line (Invitrogen), pcDNA5/FRT/TO, induced with tetracycline
Protocol: as §1, §2

T1 sequence (Q865E1 1-445): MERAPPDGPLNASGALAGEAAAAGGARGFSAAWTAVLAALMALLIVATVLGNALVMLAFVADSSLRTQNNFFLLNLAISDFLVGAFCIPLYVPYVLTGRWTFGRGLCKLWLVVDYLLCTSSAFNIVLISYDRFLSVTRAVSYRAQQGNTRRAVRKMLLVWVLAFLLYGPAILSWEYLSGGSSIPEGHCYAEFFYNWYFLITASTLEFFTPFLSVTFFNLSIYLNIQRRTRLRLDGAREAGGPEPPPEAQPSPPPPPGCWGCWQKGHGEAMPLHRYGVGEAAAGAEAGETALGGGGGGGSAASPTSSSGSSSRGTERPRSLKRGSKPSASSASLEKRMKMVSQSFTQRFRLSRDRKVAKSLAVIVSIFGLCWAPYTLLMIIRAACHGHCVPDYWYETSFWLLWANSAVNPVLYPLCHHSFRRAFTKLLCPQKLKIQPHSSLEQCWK
T2 sequence (Q865E1 1-445): as above
Chain of Rat H3 (Q9QYN8 whole entry): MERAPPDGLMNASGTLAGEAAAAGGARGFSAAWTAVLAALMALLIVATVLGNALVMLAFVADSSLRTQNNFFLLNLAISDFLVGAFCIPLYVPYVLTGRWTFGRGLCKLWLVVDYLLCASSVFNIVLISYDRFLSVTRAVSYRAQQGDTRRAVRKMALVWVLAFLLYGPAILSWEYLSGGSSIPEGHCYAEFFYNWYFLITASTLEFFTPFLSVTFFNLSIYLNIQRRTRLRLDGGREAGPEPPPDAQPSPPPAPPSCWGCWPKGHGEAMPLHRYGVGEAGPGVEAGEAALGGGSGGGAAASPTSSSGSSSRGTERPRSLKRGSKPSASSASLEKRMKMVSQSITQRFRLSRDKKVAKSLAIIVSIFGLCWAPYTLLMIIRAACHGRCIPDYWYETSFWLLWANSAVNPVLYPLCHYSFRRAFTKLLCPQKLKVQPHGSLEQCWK

SMILES | GTPγS-35 ASSAY % Inverse Agonism (rhesus H3) [%] | Ki (Rat H3) [nM] | Ki [1] [nM]
Cc1ccc(S(=O)(=O)N2CCc3cc(N4CC[C@H](N5CCC[C@@H]5C)C4)ccc3C2)cc1 [Example 24, 6-((2S,3′S)-2-Methyl-[1,3′]bipyrrolidinyl-1′-yl)-2-(toluene-4-sulfonyl)-1,2,3,4-tetrahydro-isoquinoline] | −33.2 | 110 | 88
CCOC(=O)N1CCc2cc(N3CC[C@H](N4CCC[C@@H]4C)C3)ccc2C1 [Example 25, 6-((2S,3′S)-2-Methyl-[1,3′]bipyrrolidinyl-1′-yl)-3,4-dihydro-1H-isoquinoline-2-carboxylic acid ethyl ester] | −0.5 | 75 | 1.2
C[C@H]1CCCN1[C@H]1CCN(c2ccc3c(c2)CCN(C(=O)c2ccccc2)C3)C1 [Example 16, [6-((2S,3′S)-2-Methyl-[1,3′]bipyrrolidinyl-1′-yl)-3,4-dihydro-1H-isoquinolin-2-yl]-phenyl-methanone] | −18.9 | 7.3 | 0.29
C[C@H]1CCCN1[C@H]1CCN(c2ccc3c(c2)CCN(C2CCC(NC(=O)OC(C)(C)C)CC2)C3)C1 (stereo partly drawn) [Example 11, {4-[6-((2S,3′S)-2-Methyl-[1,3′]bipyrrolidinyl-1′-yl)-3,4-dihydro-1H-isoquinolin-2-yl]-cyclohexyl}-carbamic acid tert-butyl ester] | −7.9 | 0.31 | 0.35
C[C@H]1CCCN1[C@H]1CCN(c2ccc3c(c2)CCN(C(=O)C2CCCCC2)C3)C1 [Example 18, Cyclohexyl-[6-((2S,3′S)-2-methyl-[1,3′]bipyrrolidinyl-1′-yl)-3,4-dihydro-1H-isoquinolin-2-yl]-methanone] | −10.7 | 0.24 | 0.094
C[C@H]1CCCN1[C@H]1CCN(c2ccc3c(c2)CCN(C(=O)C(c2ccccc2)c2ccccc2)C3)C1 [Example 13, 1-[6-((2S,3′S)-2-Methyl-[1,3′]bipyrrolidinyl-1′-yl)-3,4-dihydro-1H-isoquinolin-2-yl]-2,2-diphenyl-ethanone] | −16.1 | 7.7 | 3.7
C[C@H]1CCCN1[C@H]1CCN(c2ccc3c(c2)CCN(Cc2ccc4c(c2)OCCO4)C3)C1 [Example 8, 2-(2,3-Dihydro-benzo[1,4]dioxin-6-ylmethyl)-6-((2S,3′S)-2-methyl-[1,3′]bipyrrolidinyl-1′-yl)-1,2,3,4-tetrahydro-isoquinoline] | −9.1 | 6.9 | 0.46
C[C@H]1CCCN1[C@H]1CCN(c2ccc3c(c2)CCN(C(=O)c2cc4c(ccn4CCOC[Si](C)(C)C)s2)C3)C1 [Example 20, [6-((2S,3′S)-2-Methyl-[1,3′]bipyrrolidinyl-1′-yl)-3,4-dihydro-1H-isoquinolin-2-yl]-[4-(2-trimethylsilanylmethoxy-ethyl)-4H-thieno[3,2-b]pyrrol-2-yl]-methanone] | −23.0 | 140 | 22
C[C@H]1CCCN1[C@H]1CCN(c2ccc3c(c2)CCN(CC2CCCC2)C3)C1 [Example 7, 2-Cyclopentylmethyl-6-((2S,3′S)-2-methyl-[1,3′]bipyrrolidinyl-1′-yl)-1,2,3,4-tetrahydro-isoquinoline] | −6.9 | 0.19 | 1.2
COc1ccc(C(=O)N2CCc3cc(N4CC[C@H](N5CCC[C@@H]5C)C4)ccc3C2)cc1 [Example 12, (4-Methoxy-phenyl)-[6-((2S,3′S)-2-methyl-[1,3′]bipyrrolidinyl-1′-yl)-3,4-dihydro-1H-isoquinolin-2-yl]-methanone] | −26.1 | 6.2 | 2.8
C[C@H]1CCCN1[C@H]1CCN(c2ccc3c(c2)CCN(C(=O)Nc2ccc(-c4ccccc4)cc2)C3)C1 [Example 26, 6-((2S,3′S)-2-Methyl-[1,3′]bipyrrolidinyl-1′-yl)-3,4-dihydro-1H-isoquinoline-2-carboxylic acid biphenyl-4-ylamide] | −16.1 | 330 | 74
C[C@H]1CCCN1[C@H]1CCN(c2ccc3c(c2)CN(C(=O)C2CCOCC2)CC3)C1 [Example 2, [7-((2S,3′S)-2-Methyl-[1,3′]bipyrrolidinyl-1′-yl)-3,4-dihydro-1H-isoquinolin-2-yl]-(tetrahydro-pyran-4-yl)-methanone] | −25.5 | 0.91 | 0.66
C[C@H]1CCCN1[C@H]1CCN(c2ccc3c(c2)CCN(C2CCN(C(=O)OC(C)(C)C)C2)C3)C1 (stereo partly drawn) [Example 6, 3-[6-((2S,3′S)-2-Methyl-[1,3′]bipyrrolidinyl-1′-yl)-3,4-dihydro-1H-isoquinolin-2-yl]-pyrrolidine-1-carboxylic acid tert-butyl ester] | −24.9 | 0.74 | 0.9
C[C@H]1CCCN1[C@H]1CCN(c2ccc3c(c2)CCN(C(=O)c2ccc(F)cc2)C3)C1 [Example 17, (4-Fluoro-phenyl)-[6-((2S,3′S)-2-methyl-[1,3′]bipyrrolidinyl-1′-yl)-3,4-dihydro-1H-isoquinolin-2-yl]-methanone] | −10.4 | 3.1 | 0.19
COc1cccc(S(=O)(=O)N2CCc3cc(N4CC[C@H](N5CCC[C@@H]5C)C4)ccc3C2)c1.O=C(O)C(F)(F)F [Example 22, 2-(3-Methoxy-benzenesulfonyl)-6-((2S,3′S)-2-methyl-[1,3′]bipyrrolidinyl-1′-yl)-1,2,3,4-tetrahydro-isoquinoline; compound with trifluoro-acetic acid] | −27.7 | 15 | 25
CC(C)N1CCc2cc(N3CC[C@H](N4CCC[C@@H]4C)C3)ccc2C1 [Example 10, 2-Isopropyl-6-((2S,3′S)-2-methyl-[1,3′]bipyrrolidinyl-1′-yl)-1,2,3,4-tetrahydro-isoquinoline] | −9.3 | 0.91 | 0.75
COc1cccc(NC(=O)N2CCc3cc(N4CC[C@H](N5CCC[C@@H]5C)C4)ccc3C2)c1 [Example 23, 6-((2S,3′S)-2-Methyl-[1,3′]bipyrrolidinyl-1′-yl)-3,4-dihydro-1H-isoquinoline-2-carboxylic acid (3-methoxy-phenyl)-amide] | −22.5 | 280 | 11
C[C@H]1CCCN1[C@H]1CCN(c2ccc3c(c2)CCN(Cc2ccc(F)cc2)C3)C1 [Example 9, 2-(4-Fluoro-benzyl)-6-((2S,3′S)-2-methyl-[1,3′]bipyrrolidinyl-1′-yl)-1,2,3,4-tetrahydro-isoquinoline] | −6.2 | 0.19 | 0.37
CCOC(=O)N1CCC(N2CCc3cc(N4CC[C@H](N5CCC[C@@H]5C)C4)ccc3C2)CC1 [Example 3, 4-[6-((2S,3′S)-2-Methyl-[1,3′]bipyrrolidinyl-1′-yl)-3,4-dihydro-1H-isoquinolin-2-yl]-piperidine-1-carboxylic acid ethyl ester] |  | 0.97 | 0.38
